Experimental data reported in patent US20240092863A1, “ANTIMICROBIAL TARGET” (priority 2020, published 2024).
Where a SMILES comes first, the peptide text is derived from it. Bridges are numbered along the chain shown (N, C = ends). Where no end group is shown, it is not given here. [ ]: non-standard residue; d: D form. S5 = C=CCCC[C@](C)(N)C(=O)O

Key:
S. aureus [1] = experiment: S. aureus adhesion to HaCaT human keratinocyte cells (bacterial adhesion assay, CFU); type: cell-based, Staphylococcus aureus; conditions: 200 nM peptide; FIG. 1B
Procedure: HaCaT human keratinocyte cells were cultured in DMEM supplemented with 10% (v/v) foetal bovine serum. Cells were subcultured by trypsinisation. For bacterial adhesion assays, HaCaT cells (10,000 cells/well) were grown overnight in 96-well plates.
For infection assays, bacterial were cultured from a single agar plate colony overnight in 5 ml of the appropriate growth medium. Then cultures were harvested by centrifugation, washed with 10 ml PBS, re-suspended in growth medium and incubated to achieve an OD600 equivalent to 5×10^8 CFU/ml. Cultures were again harvested by centrifugation, washed twice with PBS and re-suspended in DMEM at an appropriate density.

trypsin = experiment: Protease stability: trypsin digestion, LC-MS; type: in vitro ADME; conditions: 100 ug/ml peptide, trypsin 2 mg/ml, 37° C., 1 hour
P. aeruginosa PA01 = experiment: Stability to bacterial cultures (P. aeruginosa PA01), residual activity in infection assay on HaCaT; type: in vitro ADME, Pseudomonas aeruginosa; conditions: 4 hrs incubation with growing culture
S. aureus SH1000 [2] = tested on: S. aureus SH1000
Procedure: Protease stability was assessed using trypsin, chymotrypsin and human serum. Peptides at 100 μg/ml were incubated in 100 mM ammonium bicarbonate+2 mM calcium chloride were digested using trypsin (2 mg/ml), chymotrypsin (2 mg/ml) or human serum (25% (v/v)) for 1 or 18 hours. Digestion was performed at 37° C. for trypsin and human serum, and 25° C. for chymotrypsin. Reaction was stopped with 2.5% formic acid for trypsin and chymotrypsin. Human serum proteins were precipitated with acetonitrile. Supernatants were analysed on LC-MS. Stability to bacterial proteases was also analysed in cultures of S. aureus SH100 and P. aeruginosa PA01. 20 nM peptides in Keratinocyte-Serum Free Medium (KFSM) were incubated with mid-log phase cultures of bacteria for 4 hours. Bacteria were then removed by centrifugation and the supernatants used in bacterial adhesion assays, as described below.
Human cells in 96-well plates were washed with 200 ul HBSS and incubated with 200 μl 5% (w/v) BSA for 1 hour at 37° C., washed twice with 200 μl HBSS prior to incubation for 1 hour at 37° C. with peptides diluted in DMEM, or DMEM alone for control well. After removal of peptide solutions, wells were infected for 1 hour at 37° C. with 50 μl bacteria suspended in DMEM at optimised multiplicities of infection (MOI). […]

chymotrypsin = experiment: Protease stability: chymotrypsin digestion, LC-MS; type: in vitro ADME; conditions: 100 ug/ml peptide, chymotrypsin 2 mg/ml, 25° C., 1 hour
S. aureus [3] = conditions: reference [7]; cited from earlier work
S. aureus SH1000 [4] = conditions: cited from earlier work
[5] = Protease stability: trypsin digestion, LC-MS; type: in vitro ADME; conditions: 100 ug/ml peptide, trypsin 2 mg/ml, 37° C., 18 hours; read-out: peptide still undigested in trypsin at 18 hours
[6] = Protease stability: chymotrypsin digestion, LC-MS; type: in vitro ADME; conditions: 100 ug/ml peptide, chymotrypsin 2 mg/ml, 25° C., 18 hours; read-out: peptide still undigested in chymotrypsin at 18 hours
S. aureus SH1000 [7] = experiment: Mouse in vivo skin infection model; set-up: species or system Staphylococcus aureus; conditions: mice, 200 nM peptide mixed with S. aureus SH1000 in a bandage on depilated skin; FIG. 9
Procedure: C57/Bl6 mice were shaved to produce a bare area of approximately 2×2 cm. Depilatory cream was applied to depilate this area. A bandage was applied that contained a saline solution containing 200 nM of mouse 800-CAP, its scrambled control or human 800ii, and S. aureus SH1000. After 5 days, the mice were sacrificed and the depilated skin processed to release bacteria. The infection was assessed as CFU, and normalised to untreated control mice (=100). The experiment was performed 3 times using groups of 3 mice for each condition. Data are shown as the means of each separate experiment. Significance of the difference from 100 was calculated using a one-sample t test.

## peptide 7: synthetic peptide with helix-preserving Ala residues replacing Pro27/Thr31 (DEAQREALKAIHYALN; Pro27/Thr31 mutant 800-Cap peptide)
S. aureus [1]
  inhibitory activity against S. aureus adhesion to human keratinocyte line HaCaT: retained full activity

## DEPQRETLKAIHYALN [800-Cap]
trypsin
  digestion by trypsin after 1 hour: completely digested
P. aeruginosa PA01; residual activity on S. aureus SH1000 / HaCaT
  peptide activity degraded by incubation with P. aeruginosa PA01 culture: ~50%
S. aureus SH1000 [2]
  peptide activity degraded by incubation with S. aureus SH1000 culture: ~50%
chymotrypsin
  digestion by chymotrypsin after 1 hour: completely digested

## 800: short peptide derived from the primary sequence of the tetraspanin CD9 large extracellular domain (EC2); previously published (EPQRETLKAIHYALN; 800 peptide sequence) [compound 800]
S. aureus [3]
  functional activity, time and dose dependence: functionally active in a time and dose-dependent manner
  reduction of adherence of Staphylococcus aureus binding to human keratinocyte cells: can reduce the adherence
S. aureus SH1000 [4]; previously published (Ventress et al., 2016)
  activity against S. aureus adhesion to a wound model of human skin: active
S. aureus SH1000 [4]; reference [7]
  bacterial burden in a 3D model of human skin: effective in lowering bacterial burden

## CC[C@H](C)[C@@H]1NC(=O)[C@@](C)(NC(=O)[C@H](CCCCN)NC(=O)[C@H](CC(C)C)NC(=O)[C@@H](NC(=O)[C@H](CCC(=O)O)NC(=O)[C@H](CCCNC(=N)N)NC(=O)[C@H](CCC(N)=O)NC(=O)[C@@H]2CCCN2C(=O)[C@H](CCC(=O)O)NC(=O)[C@@H](N)CC(=O)O)[C@@H](C)O)CCCC=CCCC[C@@](C)(C(=O)N[C@@H](CC(C)C)C(=O)N[C@@H](CC(N)=O)C(=O)O)NC(=O)[C@H](Cc2ccc(O)cc2)NC(=O)[C@H](Cc2c[nH]cn2)NC1=O [800ii] (H-DEPQRETLK[S5]IHY[S5]LN-OH; staple 10-14; N-terminus and C-terminus assumed)
[5]
  remaining at 18 h, 100 µg/ml: 50%
trypsin
  digestion by trypsin after 1 hour: not digested at all
P. aeruginosa PA01
  resistance of peptide activity to P. aeruginosa PA01 culture: resistant
[6]
  remaining at 18 h, 100 µg/ml: 20%
chymotrypsin
  digestion by chymotrypsin after 1 hour: not digested at all

## 1: synthetic peptide with helix-preserving Ala residues replacing Glu26/Arg29 (DAPQAETLKAIHYALN; Glu26/Arg29 mutant 800-Cap peptide) [compound 1]
S. aureus [1]
  inhibitory activity against S. aureus adhesion to human keratinocyte line HaCaT: no activity

## SEQ ID NO: 18: shorter form of peptide 800-Cap (KAIHYALN; second short form of 800-Cap)
S. aureus [1]
  inhibitory activity against S. aureus adhesion to human keratinocyte line HaCaT: little or no inhibitory activity

## mouse equivalent of 800-CAP: the mouse equivalent of 800-CAP; probably SEQ ID NO: 6 (DEPQRETLKAIHMALD; listed as Mus musculus)
S. aureus SH1000 [7]
  bacterial load in skin after 5 days: significantly reduced

## SEQ ID NO: 17: shorter form of peptide 800-Cap (DEPQRETL; first short form of 800-Cap)
S. aureus [1]
  inhibitory activity against S. aureus adhesion to human keratinocyte line HaCaT: little or no inhibitory activity

## CC[C@H](C)[C@H](NC(=O)[C@H](C)NC(=O)[C@H](CCCCN)NC(=O)[C@H](CC(C)C)NC(=O)[C@]1(C)CCCC=CCCC[C@](C)(NC(=O)[C@H](CCC(=O)O)NC(=O)[C@@H](N)CC(=O)O)C(=O)N[C@@H](CCC(N)=O)C(=O)N[C@@H](CCCNC(=N)N)C(=O)N[C@@H](CCC(=O)O)C(=O)N1)C(=O)N[C@@H](Cc1c[nH]cn1)C(=O)N[C@@H](Cc1ccc(O)cc1)C(=O)N[C@@H](C)C(=O)N[C@@H](CC(C)C)C(=O)N[C@@H](CC(N)=O)C(=O)O [800i] (H-DE[S5]QRE[S5]LKAIHYALN-OH; staple 3-7; N-terminus and C-terminus assumed)
P. aeruginosa PA01
  resistance of peptide activity to P. aeruginosa PA01 culture: resistant

## 6: synthetic peptide with helix-preserving Ala residues replacing Ile35/Leu39 (DEPQRETLKAAHYAAN; Ile35/Leu39 mutant 800-Cap peptide) [compound 6]
S. aureus [1]
  inhibitory activity against S. aureus adhesion to human keratinocyte line HaCaT: no activity
